Publication PMC6100082, “Pyridine-Ureas as Potential Anticancer Agents: Synthesis and In Vitro Biological Evaluation” (Molecules : A Journal of Synthetic Chemistry and Natural …, 2018)

Key:
Type in all cases: cell-based, human
NCI 58 cell line panel = experiment: NCI one-dose SRB assay, whole panel / subpanel summary
Method: (§1) The structures of all the newly prepared pyridine-ureas 8a–n were submitted to the National Cancer Institute (NCI) Developmental Therapeutic Program. Eight compounds 8b, 8d, 8e, 8i, 8j and 8l–n were selected to be examined for their in vitro growth inhibitory activity. The anticancer assays were carried out according to the protocol of the Drug Evaluation Branch, NCI, Bethesda. The selected pyridine-ureas were tested at one dose primary anticancer assay against a panel of approximately 58 cancer lines (concentration 10^−5 M). The tested human cancer cell lines emerged from nine different cancer subtypes: leukemia, colon, melanoma, ovarian, lung, CNS, renal, breast and prostate cancers. The sulforhodamine B (SRB) protein assay was adopted to estimate the cell viability and growth. The results were reported as mean-graph of the percentage growth of the treated cells, and presented as percentage growth inhibition (GI%) caused by the test compounds (Table 2).
(§2) The anticancer assays were performed in accordance with the protocol of the Drug Evaluation Branch, NCI, Bethesda. A 48 h drug exposure protocol was used and sulforhodamine B (SRB) protein assay was applied to estimate the cell viability and growth, as reported earlier.

UO-31 = experiment: NCI one-dose SRB assay (Renal Cancer)
Method: as §1, §2

SN12C = experiment: NCI one-dose SRB assay (Renal Cancer)
Method: as §1, §2

A498 = experiment: NCI one-dose SRB assay (Renal Cancer)
Method: as §1, §2

TK-10 = experiment: NCI one-dose SRB assay (Renal Cancer)
Method: as §1, §2

RXF 393 = experiment: NCI one-dose SRB assay (Renal Cancer)
Method: as §1, §2

786-0 = experiment: NCI one-dose SRB assay (Renal Cancer)
Method: as §1, §2

LOX IMVI = experiment: NCI one-dose SRB assay (Melanoma)
Method: as §1, §2

UACC-257 = experiment: NCI one-dose SRB assay (Melanoma)
Method: as §1, §2

SK-MEL-28 = experiment: NCI one-dose SRB assay (Melanoma)
Method: as §1, §2

MALME-3M = experiment: NCI one-dose SRB assay (Melanoma)
Method: as §1, §2

PC-3 = experiment: NCI one-dose SRB assay (Prostate)
Method: as §1, §2

DU-145 = experiment: NCI one-dose SRB assay (Prostate)
Method: as §1, §2

HOP-92 = experiment: NCI one-dose SRB assay (Non-Small Cell Lung Cancer)
Method: as §1, §2

EKVX = experiment: as above
Method: as §1, §2

HOP-62 = experiment: as above
Method: as §1, §2

NCI-H460 = experiment: as above
Method: as §1, §2

NCI-H23 = experiment: as above
Method: as §1, §2

NCI-H522 = experiment: as above
Method: as §1, §2

NCI-H322M = experiment: as above
Method: as §1, §2

A549/ATCC = experiment: as above
Method: as §1, §2

NCI-H226 = experiment: as above
Method: as §1, §2

HL-60(TB) = experiment: NCI one-dose SRB assay (Leukemia)
Method: as §1, §2

K-562 = experiment: NCI one-dose SRB assay (Leukemia)
Method: as §1, §2

SR = experiment: NCI one-dose SRB assay (Leukemia)
Method: as §1, §2

MOLT-4 = experiment: NCI one-dose SRB assay (Leukemia)
Method: as §1, §2

RPMI-8226 = experiment: NCI one-dose SRB assay (Leukemia)
Method: as §1, §2

CCRF-CEM = experiment: NCI one-dose SRB assay (Leukemia)
Method: as §1, §2

[1] = Homo sapiens, 10 μM, read-out: Percentage growth inhibition (GI%)

SMILES: COc1ccc(-c2ccc(NC(=O)Nc3ccc(Cl)cc3)c(C)n2)cc1 [Compound 8d, 1-(4-Chlorophenyl)-3-(6-(4-methoxyphenyl)-2-methylpyridin-3-yl) Urea]
- inhibition at 10 µM (NCI 58 cell line panel; Homo sapiens, 10 μM, one dose, read-out: mean inhibition (mean % growth inhibition over NCI 58 cell line panel)): 14%
- Mean Growth Percent (NCI 58 cell line panel; One Dose Mean Graph, 1.00E-5 Molar): 86.24%
- inhibition at 10 µM (UO-31; Homo sapiens, UO-31, 10 μM, read-out: Percentage growth inhibition (GI%)): 11%
- Growth Percent (UO-31; UO-31, 1.00E-5 Molar): 89.14%
- Growth Percent (SN12C; 1.00E-5 Molar): 98.33%
- inhibition at 10 µM (SN12C; [1]): < 10%
- Growth Percent (A498; A498, 1.00E-5 Molar): 79.24%
- inhibition at 10 µM (A498; Homo sapiens, A498, 10 μM, read-out: Percentage growth inhibition (GI%)): 21%
- inhibition at 10 µM (TK-10; Homo sapiens, TK-10, 10 μM, read-out: Percentage growth inhibition (GI%)): < 10%
- Growth Percent (TK-10; TK-10, 1.00E-5 Molar): 102.41%
- inhibition at 10 µM (RXF 393; Homo sapiens, RXF 393, 10 μM, read-out: Percentage growth inhibition (GI%)): < 10%
- Growth Percent (RXF 393; RXF 393, 1.00E-5 Molar): 98.51%
- Growth Percent (786-0; 786-0, 1.00E-5 Molar): 90.10%
- inhibition at 10 µM (786-0; Homo sapiens, 786-0, 10 μM, read-out: Percentage growth inhibition (GI%)): 10%
- Growth Percent (LOX IMVI; 1.00E-5 Molar): 85.30%
- inhibition at 10 µM (LOX IMVI; [1]): 15%
- inhibition at 10 µM (UACC-257; Homo sapiens, UACC-257, 10 μM, read-out: Percentage growth inhibition (GI%)): 22%
- Growth Percent (UACC-257; UACC-257, 1.00E-5 Molar): 78.79%
- inhibition at 10 µM (SK-MEL-28; Homo sapiens, SK-MEL-28, 10 μM, read-out: Percentage growth inhibition (GI%)): 11%
- Growth Percent (SK-MEL-28; SK-MEL-28, 1.00E-5 Molar): 89.84%
- Growth Percent (MALME-3M; 1.00E-5 Molar): 104.47%
- inhibition at 10 µM (MALME-3M; [1]): < 10%
- inhibition at 10 µM (PC-3; Homo sapiens, PC-3, 10 μM, read-out: Percentage growth inhibition (GI%)): 24%
- Growth Percent (PC-3; PC-3, 1.00E-5 Molar): 76.01%
- Growth Percent (DU-145; DU-145, 1.00E-5 Molar): 98.63%
- inhibition at 10 µM (DU-145; Homo sapiens, DU-145, 10 μM, read-out: Percentage growth inhibition (GI%)): < 10%
- Growth Percent (HOP-92; HOP-92, 1.00E-5 Molar): 81.02%
- inhibition at 10 µM (HOP-92; Homo sapiens, HOP-92, 10 μM, read-out: Percentage growth inhibition (GI%)): 19%
- Growth Percent (EKVX; 1.00E-5 Molar): 92.90%
- inhibition at 10 µM (EKVX; [1]): < 10%
- Growth Percent (HOP-62; HOP-62, 1.00E-5 Molar): 81.25%
- inhibition at 10 µM (HOP-62; Homo sapiens, HOP-62, 10 μM, read-out: Percentage growth inhibition (GI%)): 19%
- inhibition at 10 µM (NCI-H460; Homo sapiens, NCI-H460, 10 μM, read-out: Percentage growth inhibition (GI%)): 36%
- Growth Percent (NCI-H460; NCI-H460, 1.00E-5 Molar): 64.55%
- inhibition at 10 µM (NCI-H23; Homo sapiens, NCI-H23, 10 μM, read-out: Percentage growth inhibition (GI%)): < 10%
- Growth Percent (NCI-H23; NCI-H23, 1.00E-5 Molar): 94.08%
- inhibition at 10 µM (NCI-H522; Homo sapiens, NCI-H522, 10 μM, read-out: Percentage growth inhibition (GI%)): 33%
- Growth Percent (NCI-H522; NCI-H522, 1.00E-5 Molar): 67.47%
- Growth Percent (NCI-H322M; 1.00E-5 Molar): 65.27%
- inhibition at 10 µM (NCI-H322M; [1]): 35%
- Growth Percent (A549/ATCC; 1.00E-5 Molar): 68.26%
- inhibition at 10 µM (A549/ATCC; [1]): 32%
- inhibition at 10 µM (NCI-H226; Homo sapiens, NCI-H226, 10 μM, read-out: Percentage growth inhibition (GI%)): < 10%
- Growth Percent (NCI-H226; NCI-H226, 1.00E-5 Molar): 97.81%
- Growth Percent (HL-60(TB); 1.00E-5 Molar): 79.74%
- inhibition at 10 µM (HL-60(TB); [1]): 21%
- inhibition at 10 µM (K-562; Homo sapiens, K562, K-562, 10 μM, read-out: Percentage growth inhibition (GI%)): 16%
- Growth Percent (K-562; K-562, 1.00E-5 Molar): 84.35%
- Growth Percent (SR; 1.00E-5 Molar): 43.88%
- inhibition at 10 µM (SR; [1]): 57%
- inhibition at 10 µM (MOLT-4; Homo sapiens, MOLT-4, 10 μM, read-out: Percentage growth inhibition (GI%)): 28%
- Growth Percent (MOLT-4; MOLT-4, 1.00E-5 Molar): 72.42%
- inhibition at 10 µM (RPMI-8226; Homo sapiens, RPMI-8226, 10 μM, read-out: Percentage growth inhibition (GI%)): 10%
- Growth Percent (RPMI-8226; RPMI-8226, 1.00E-5 Molar): 90.15%
- Growth Percent (CCRF-CEM; 1.00E-5 Molar): 81.43%
- inhibition at 10 µM (CCRF-CEM; [1]): 19%
